# From PubChem BioAssay (NCI)
#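 GI50 = concentration required for 50% inhibition of growth. TGI is the concentration that stops growth completely.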
# Assays:
# Test in all cases: inhibition of tumour cell growth, NCI panel, 384-well format
# [1] = tested on: 786-0 renal
# [2] = tested on: A498 renal
# [3] = tested on: A549 NSCLC
# [4] = tested on: ACHN renal
# [5] = tested on: BT-549 breast
# [6] = tested on: CAKI-1 renal
# [7] = tested on: CCRF-CEM leukemia
# [8] = tested on: COLO 205 colon
# [9] = tested on: DU-145 prostate
# [10] = tested on: EKVX NSCLC
# [11] = tested on: HCC-2998 colon
# [12] = tested on: HCT-116 colon
# [13] = tested on: HCT-15 colon
# [14] = tested on: HL-60(TB) leukemia
# [15] = tested on: HOP-62 NSCLC
# [16] = tested on: HOP-92 NSCLC
# [17] = tested on: HS 578T breast
# [18] = tested on: HT29 colon
# [19] = tested on: IGROV1 ovarian
# [20] = tested on: K-562 leukemia
# [21] = tested on: KM12 colon
# [22] = tested on: LOX IMVI melanoma
# [23] = tested on: M14 melanoma
# [24] = tested on: MALME-3M melanoma
# [25] = tested on: MCF7 breast
# [26] = tested on: MDA-MB-231 breast
# [27] = tested on: MDA-MB-435 melanoma
# [28] = tested on: MDA-MB-468 breast
# [29] = tested on: MOLT-4 leukemia
# [30] = tested on: NCI-H226 lung
# [31] = tested on: NCI-H23 lung
# [32] = tested on: NCI-H322M lung
# [33] = tested on: NCI-H460 NSCLC
# [34] = tested on: NCI-H522 lung
# [35] = tested on: NCI/ADR-RES ovarian
# [36] = tested on: OVCAR-3 ovarian
# [37] = tested on: OVCAR-4 ovarian
# [38] = tested on: OVCAR-8 ovarian
# [39] = tested on: PC-3 prostate
# [40] = tested on: RPMI-8226 leukemia
# [41] = tested on: RXF 393 renal
# [42] = tested on: SF-268 CNS
# [43] = tested on: SF-295 CNS
# [44] = tested on: SF-539 CNS
# [45] = tested on: SK-MEL-28 melanoma
# [46] = tested on: SK-MEL-5 melanoma
# [47] = tested on: SK-OV-3 ovarian
# [48] = tested on: SN12C renal
# [49] = tested on: SNB-19 CNS
# [50] = tested on: SNB-75 CNS
# [51] = tested on: SR leukemia
# [52] = tested on: SW-620 colon
# [53] = tested on: T-47D breast
# [54] = tested on: TK-10 renal
# [55] = tested on: U251 glioblastoma
# [56] = tested on: UACC-257 melanoma
# [57] = tested on: UACC-62 melanoma
# [58] = tested on: UO-31 renal
compound,measurement,setting,value
Cc1nnc(C[C@@H]2C=C(c3ccc(Cl)cc3)c3ccccc3-n3c(C)nnc32)o1,GI50,[1],0.424 µM
same,TGI,[1],20.8 µM
same,GI50,[2],0.783 µM
same,TGI,[2],16.3 µM
same,GI50,[3],0.989 µM
same,TGI,[3],26.4 µM
same,GI50,[4],1.96 µM
same,TGI,[4],56.8 µM
same,GI50,[5],0.238 µM
same,TGI,[5],10 µM
same,GI50,[6],0.0908 µM
same,TGI,[6],13.5 µM
same,GI50,[7],0.357 µM
same,TGI,[7],12.5 µM
same,GI50,[8],0.487 µM
same,TGI,[8],17.2 µM
same,GI50,[9],5.28 µM
same,TGI,[9],43 µM
same,GI50,[10],17.5 µM
same,TGI,[10],66.8 µM
same,GI50,[11],0.285 µM
same,TGI,[11],2.46 µM
same,GI50,[12],0.453 µM
same,TGI,[12],17.9 µM
same,GI50,[13],0.283 µM
same,TGI,[13],10.4 µM
same,GI50,[14],0.0346 µM
same,TGI,[14],0.144 µM
same,GI50,[15],0.316 µM
same,TGI,[15],16.2 µM
same,GI50,[16],0.595 µM
same,TGI,[16],45 µM
same,GI50,[17],0.0882 µM
same,TGI,[17],1.4 µM
same,GI50,[18],0.267 µM
same,TGI,[18],14.5 µM
same,GI50,[19],0.631 µM
same,TGI,[19],15.2 µM
same,GI50,[20],0.377 µM
same,TGI,[20],15.4 µM
same,GI50,[21],1.69 µM
same,TGI,[21],20.7 µM
same,GI50,[22],0.192 µM
same,TGI,[22],0.469 µM
same,GI50,[23],0.935 µM
same,TGI,[23],38.8 µM
same,GI50,[24],0.382 µM
same,TGI,[24],19.3 µM
same,GI50,[25],0.087 µM
same,TGI,[25],21.4 µM
same,GI50,[26],0.39 µM
same,TGI,[26],> 100 µM
same,GI50,[27],2.13 µM
same,TGI,[27],17.1 µM
same,GI50,[28],1.5 µM
same,TGI,[28],16.4 µM
same,GI50,[29],0.321 µM
same,TGI,[29],10.2 µM
same,GI50,[30],0.294 µM
same,TGI,[30],17.4 µM
same,GI50,[31],0.545 µM
same,TGI,[31],12.9 µM
same,GI50,[32],0.492 µM
same,TGI,[32],37.6 µM
same,GI50,[33],1.34 µM
same,TGI,[33],18.7 µM
same,GI50,[34],0.25 µM
same,TGI,[34],2.95 µM
same,GI50,[35],1.49 µM
same,TGI,[35],12.5 µM
same,GI50,[36],0.379 µM
same,TGI,[36],12.9 µM
same,GI50,[37],0.447 µM
same,TGI,[37],4.91 µM
same,GI50,[38],0.246 µM
same,TGI,[38],3.1 µM
same,GI50,[39],0.996 µM
same,TGI,[39],33.2 µM
same,GI50,[40],0.059 µM
same,TGI,[40],0.351 µM
same,GI50,[41],2.6 µM
same,TGI,[41],18.3 µM
same,GI50,[42],3.22 µM
same,TGI,[42],24 µM
same,GI50,[43],4.52 µM
same,TGI,[43],32.6 µM
same,GI50,[44],1.65 µM
same,TGI,[44],24.5 µM
same,GI50,[45],0.987 µM
same,TGI,[45],36.7 µM
same,GI50,[46],0.695 µM
same,TGI,[46],17.7 µM
same,GI50,[47],0.393 µM
same,TGI,[47],15.3 µM
same,GI50,[48],12.5 µM
same,TGI,[48],41.1 µM
same,GI50,[49],2.55 µM
same,TGI,[49],31.6 µM
same,GI50,[50],0.965 µM
same,TGI,[50],> 100 µM
same,GI50,[51],0.0585 µM
same,TGI,[51],0.371 µM
same,GI50,[52],10.4 µM
same,TGI,[52],22.7 µM
same,GI50,[53],4.96 µM
same,TGI,[53],57.9 µM
same,GI50,[54],0.29 µM
same,TGI,[54],13.4 µM
same,GI50,[55],3.89 µM
same,TGI,[55],25 µM
same,GI50,[56],7.05 µM
same,TGI,[56],27.3 µM
same,GI50,[57],0.076 µM
same,TGI,[57],12.2 µM
same,GI50,[58],0.676 µM
same,TGI,[58],> 100 µM
C=CC(=O)N[C@@H]1CN(c2nc(Nc3cn(C)nc3OC)c3ncn(C)c3n2)C[C@H]1F,GI50,[1],37.3 µM
same,TGI,[1],> 100 µM
same,GI50,[2],27.6 µM
same,TGI,[2],> 100 µM
same,GI50,[3],21.4 µM
same,TGI,[3],> 100 µM
same,GI50,[4],1.9 µM
same,TGI,[4],> 100 µM
same,GI50,[5],25.4 µM
same,TGI,[5],70.9 µM
same,GI50,[6],1.26 µM
same,TGI,[6],> 100 µM
same,GI50,[7],15.5 µM
same,TGI,[7],29.2 µM
same,GI50,[8],23 µM
same,TGI,[8],53.8 µM
same,GI50,[9],13.8 µM
same,TGI,[9],49.1 µM
same,GI50,[10],0.338 µM
same,TGI,[10],24.9 µM
same,GI50,[11],20.9 µM
same,TGI,[11],50 µM
same,GI50,[12],33.4 µM
same,TGI,[12],> 100 µM
same,GI50,[13],37.1 µM
same,TGI,[13],> 100 µM
same,GI50,[14],12.3 µM
same,TGI,[14],25.1 µM
same,GI50,[15],31.9 µM
same,TGI,[15],> 100 µM
same,GI50,[16],23.4 µM
same,TGI,[16],> 100 µM
same,GI50,[17],21.5 µM
same,TGI,[17],55.9 µM
same,GI50,[18],20.5 µM
same,TGI,[18],54.4 µM
same,GI50,[19],3.27 µM
same,TGI,[19],30.3 µM
same,GI50,[20],23.2 µM
same,TGI,[20],52 µM
same,GI50,[21],39.2 µM
same,TGI,[21],> 100 µM
same,GI50,[22],34.6 µM
same,TGI,[22],> 100 µM
same,GI50,[23],16 µM
same,TGI,[23],41.8 µM
same,GI50,[24],17.5 µM
same,TGI,[24],60.2 µM
same,GI50,[25],18 µM
same,TGI,[25],73.7 µM
same,GI50,[26],24.3 µM
same,TGI,[26],98.4 µM
same,GI50,[27],17.2 µM
same,TGI,[27],34.3 µM
same,GI50,[28],0.0291 µM
same,TGI,[28],0.114 µM
same,GI50,[29],16.6 µM
same,TGI,[29],30.8 µM
same,GI50,[30],20.2 µM
same,TGI,[30],62.2 µM
same,GI50,[31],16.2 µM
same,TGI,[31],35.6 µM
same,GI50,[32],0.0896 µM
same,TGI,[32],12.7 µM
same,GI50,[33],21.9 µM
same,TGI,[33],42.1 µM
same,GI50,[34],0.0389 µM
same,TGI,[34],15.7 µM
same,GI50,[35],> 100 µM
same,TGI,[35],> 100 µM
same,GI50,[36],12.3 µM
same,TGI,[36],37.2 µM
same,GI50,[37],49.8 µM
same,TGI,[37],> 100 µM
same,GI50,[38],19.5 µM
same,TGI,[38],58.4 µM
same,GI50,[39],39.4 µM
same,TGI,[39],> 100 µM
same,GI50,[40],18 µM
same,TGI,[40],36.7 µM
same,GI50,[41],24.8 µM
same,TGI,[41],83.8 µM
same,GI50,[42],29 µM
same,TGI,[42],> 100 µM
same,GI50,[43],41.5 µM
same,TGI,[43],> 100 µM
same,GI50,[44],29.9 µM
same,TGI,[44],89.6 µM
same,GI50,[45],28.5 µM
same,TGI,[45],> 100 µM
same,GI50,[46],19.2 µM
same,TGI,[46],49.4 µM
same,GI50,[47],12.2 µM
same,TGI,[47],> 100 µM
same,GI50,[48],34.2 µM
same,TGI,[48],> 100 µM
same,GI50,[49],30 µM
same,TGI,[49],> 100 µM
same,GI50,[50],22.9 µM
same,TGI,[50],59.9 µM
same,GI50,[51],1.52 µM
same,TGI,[51],3.2 µM
same,GI50,[52],24.4 µM
same,TGI,[52],62.2 µM
same,GI50,[53],20.7 µM
same,TGI,[53],> 100 µM
same,GI50,[54],0.319 µM
same,TGI,[54],39.1 µM
same,GI50,[55],33.2 µM
same,TGI,[55],> 100 µM
same,GI50,[56],33.6 µM
same,TGI,[56],> 100 µM
same,GI50,[57],23.1 µM
same,TGI,[57],> 100 µM
same,GI50,[58],26.3 µM
same,TGI,[58],> 100 µM
